# Test results from patent publication US9993001B2, “Herbicidal composition” (ISHIHARA SANGYO KAISHA, LTD., priority 2014, dated 2018).
# Key:
# Type in all cases: in vivo
# [1] = tested on: Nepalese Smartweed (Persicaria nepalensis (Meisn.) H. Gross); test: Test Example 3: soybean field, soil treatment, metobromuron + S-metolachlor; settings: soil, read-out: Growth inhibition rate of Nepalese Smartweed (%) Measured value
# From the text: (§1) When the herbicidal activity in a case where two active ingredients are combined, is larger than the simple sum of the respective herbicidal activities of the two active ingredients (the expected activity), it is called a synergistic effect. The activity expected by the combination of two active ingredients can be calculated as follows (Colby S. R., “Weed”, vol. 15, p. 20-22, 1967). E=α+β−(α×β[…]) where α: growth inhibition rate when treated with x (g/ha) of herbicide X, • β: growth inhibition rate when treated with y (g/ha) of herbicide Y, • E: growth inhibition rate expected when treated with x (g/ha) of herbicide X and y (g/ha) of herbicide Y.
# (§2) On the 19th day after treatment, the state of growth of barnyardgrass was visually observed and evaluated in accordance with the following standards. The growth inhibition rate (%) [measured value] and the growth inhibition rate (%) [calculated value] calculated by the Colby's method, are shown in Table 2.
# (§3) Growth inhibition rate (%)=inhibition rate) (%) of 0 (equivalent to the non-treated area) to 100 (complete kill) […]
# On the 50th day after treatment, the state of growth of Nepalese Smartweed (Persicaria nepalensis (Meisn.) H. Gross) which occurred naturally, was visually observed and evaluated in the same manner as in Test Example 1.
# [2] = tested on: common purslane (Portulaca oleracea L.); test: Test Example 12: corn field, soil treatment, metobromuron + nicosulfuron; settings: soil, read-out: Growth inhibition rate of common purslane (%) Measured value
# From the text: as §1, §2, §3
# On the 30th day after treatment, the state of growth of common purslane (Portulaca oleracea L.) which occurred naturally, was visually observed and evaluated in the same manner as in Test Example 1.
# [3] = tested on: large crabgrass (Digitaria sanquinalis L.); test: Test Example 28: pot, soil treatment, metobromuron + pendimethalin; settings: soil, read-out: Growth inhibition rate of large crabgrass (%) Measured value
# From the text: as §1, §2
# (§4) Growth inhibition rate (%)=inhibition rate) (%) of 0 (equivalent to the non-treated area) to 100 (complete kill)
# (§5) Soil was put into a 1/300,000 ha pot, and seeds of large crabgrass (Digitaria sanquinalis L.) were sown. On the day after seeding, predetermined amounts of SC containing metobromuron as active ingredient (same as in Test Example 1) and EC containing pendimethalin as active ingredient (same as in Test Example 10) were diluted with water corresponding to 1,000 L per hectare and applied for soil treatment.
# On the 27th day after treatment, the state of growth of large crabgrass was visually observed and evaluated in the same manner as in Test Example 1.
# [4] = tested on: barnyardgrass (Echinochloa crus-galli L.); test: Test Example 18: pot, soil treatment, metobromuron + chlorpropham; settings: soil, read-out: Growth inhibition rate of barnyardgrass (%) Measured value
# From the text: as §1, §2, §4
# Soil was put into a 1/300,000 ha pot, and seeds of barnyardgrass (Echinochloa crus-galli L.) were sown. […]
# On the 26th day after treatment, the state of growth of barnyardgrass was visually observed and evaluated in the same manner as in Test Example 1.
# polygonaceae weeds = test: Test Example 10: corn field, soil treatment, metobromuron + pendimethalin; settings: soil, read-out: Growth inhibition rate of Polygonaceae weeds (%) Measured value
# From the text: as §1, §2, §3
# On the 49th day after treatment, the state of growth of polygonaceae weeds which occurred naturally, was visually observed and evaluated in the same manner as in Test Example 1, The results are shown in Table 11.
# [5] = tested on: common chickweed (Stellaria media L.); test: Test Example 25: pot, soil treatment, metobromuron + trifluralin; settings: soil, read-out: Growth inhibition rate of common chickweed (%) Measured value
# [6] = tested on: common lambsquarters (Chenopodium album L.); test: Test Example 24: pot, soil treatment, metobromuron + trifluralin; settings: soil, read-out: Growth inhibition rate of common lambsquarters (%) Measured value
# From the text: as §1, §2, §4
# as §5, with “common lambsquarters (Chenopodium album” for “large crabgrass (Digitaria sanquinalis”, “trifluralin” for “pendimethalin”, “4)” for “10)”
# On the 21st day after treatment, the state of growth of common lambsquarters was visually observed and evaluated in the same manner as in Test Example 1.
# [7] = tested on: common lambsquarters (Chenopodium album L.); test: Test Example 8: corn field, soil treatment, metobromuron + S-metolachlor; settings: soil, read-out: Growth inhibition rate of common lambsquarters (%) Measured value
# From the text: as §1, §2, §3
# On the 28th day after treatment, the state of growth of common lambsquarters (Chenopodium album L.) which occurred naturally, was visually observed and evaluated in the same manner as in Test Example 1.
# [8] = tested on: giant foxtail (Setaria faberi Herrm.); test: Test Example 16: pot, soil treatment, metobromuron + chlorpropham; settings: soil, read-out: Growth inhibition rate of giant foxtail (%) Measured value
# From the text: as §1, §2, §4
# as §5, with “barnyardgrass (Echinochloa crus-galli” for “large crabgrass (Digitaria sanquinalis”, “chlorpropham” for “pendimethalin”, “1)” for “10)”
# On the 21st day after treatment, the state of growth of barnyardgrass was visually observed and evaluated in the same manner as in Test Example 1.
# The test was carried out in the same manner as in Test Example 15 except that barnyardgrass (Echinochloa crus-galli L.) was changed to giant foxtail (Setaria faberi Herrm.), to obtain the results as shown in Table 17.
smiles,measurement,setting,value
"CON(C)C(=O)Nc1ccc(Br)cc1 [Metobromuron, 3-(4-bromophenyl)-1-methoxy-1-methylurea]",inhibition at 1500 g/ha,[1],30%
same,inhibition at 1000 g/ha,[2],85%
same,inhibition at 62.5 g/ha,[3],0%
same,inhibition at 125 g/ha,[3],15%
same,inhibition at 250 g/ha,[3],35%
same,inhibition at 188 g/ha,[4],0%
same,inhibition at 1000 g/ha,polygonaceae weeds,30%
same,inhibition at 250 g/ha,[5],73%
same,inhibition at 375 g/ha,[6],50%
same,inhibition at 1000 g/ha,[7],78%
same,inhibition at 1000 g/ha,[8],78%
